Test results: patent US20240173377A1, “RETRO - INVERSO REGULATORY T CELL EPITOPES” (EpiVax, Inc., priority 2020, published 2024)
“Also recorded” adds a separate entry of the source.

What was measured:
[1] = tested on: CD4+ T cells; assay: Tetanus Toxoid bystander assay, CD4+ T cell proliferation in PBMC (CFSE); type: cell-based, human; settings: TT-treated PBMCs of four donors; versus L-amino acid counterparts (SEQ ID NOS: 114 and 115); FIGS. 7A-7B, 8A-8B
From the text: The purpose of this experiment is to establish the ability of the instantly-disclosed retro-inverso Tregitopes (e.g., any one or more of SEQ ID NO: 1-29 and 42-107 and/or fragments and variants thereof, and optionally 1 to 12 additional amino acids distributed in any ratio on the N-terminus and/or C-terminus of the polypeptide of SEQ ID NOS: 1-29 and 42-107 as disclosed herein, wherein each of the amino acids of SEQ ID NOS: 1-29 and 42-107 (and in aspects, the optional extensions thereof) except for glycine are in the D-amino acid configuration) of the instant disclosure to suppress the proliferation CD4+ Tcells, including antigen stimulated CD4+ effector memory T cells, which in aspects is by either direct (engagement and activation of TReg) or indirect (modulation of APC phenotype) means. […]

[2] = target: Class II HLA alleles (HLA DRB1); assay: HLA binding assay (soluble MHC, competition with labeled control peptide); design: species or system human; settings: retro-inverso peptide versus L-amino acid counterpart (SEQ ID NOS: 114 and 115); HLA DRB1 *0101, *0301, *0401, *0401, *0701, *1101, *1301 and *1501; FIG. 3
Method: HLA Binding Assay. Binding activity is analyzed at EpiVax (Providence, Rhode Island). The binding assay used (Steere A C et al., (2006), J Exp Med, 2003(4):961-71) yields an indirect measure of peptide-MHC affinity. Soluble HLA molecules are loaded onto a 96-well plate with the unlabeled experimental retro-inverso Tregitopes and labeled control peptide. Once the binding mixture reaches steady equilibrium (at 24 hours), the HLA-retro-inverso Tregitope complexes are captured on an ELISA plate coated with anti-human DR antibody and detected with a Europium-linked probe for the label (PerkinElmer, Waltham, MA). Time-resolved fluorescence measuring bound labeled control peptide is assessed by a SpectraMax® M5 unit (Spectramax, Radnor, PA). Binding of experimental retro-inverso Tregitopes is expressed as the percent inhibition of the labeled control peptide ([…]). The percent inhibition values for each experimental retro-inverso Tregitope (across a range of molar concentrations) is used to calculate the concentration at which it inhibits 50% of the labeled control […] specific binding, i.e. the retro-inverso Tregitope's IC50. […]

[3] = tested on: PBMCs from lupus patients; settings: randomly selected lupus patients; cited from earlier work
[4] = tested on: human DR molecules; settings: cited from earlier work

For DQHLVTLVSVVTYTSNYQEE [SEQ ID NO: 16], the “ability to reduce CD4+ cell proliferation” value [1] was “comparable ability” and the “IC50 values, binding to HLA DRB1 alleles” value [2] was “scored comparably; also recorded: comparable affinity”.

In the case of KGYIFSHGTFHITLI [SEQ ID NO: 100], the “ability to reduce CD4+ cell proliferation” value [1] is reported as “comparable ability” and the “IC50 values, binding to HLA DRB1 alleles” value [2] is reported as “scored comparably; also recorded: comparable affinity”.

In the case of “RIHMVYSKRSGKPRGYAFIEY (listed as Homo sapiens) [peptide 131-151]”, the “lupus patients whose PBMCs contain T cells that proliferate in response to the peptide” value [3] is listed as 40% and the “binding to soluble HLA class II molecules” value [4] is listed as “binds to a large panel of human DR molecules”.
